Assay results as given in ChEMBL document CHEMBL3045477, “Dysfunctionality of the xylem in Olea europaea L. Plants associated with the infection process by Verticillium dahliae Kleb. Role of phenolic compounds in plant defense mechanism” (J Agric Food Chem, 2007).
Values after ≈ are worked out from the molar mass of the structure shown.

Tested on: Verticillium dahliae
Assay: Antifungal activity against Verticillium dahliae assessed as inhibition of mycelial radial growth measured after 350 hr
Format: functional, organism-based

| Compound | IC50 |
| --- | --- |
| O=c1c(O)c(-c2ccc(O)c(O)c2)oc2cc(O)cc(O)c12 [QUERCETIN] | 6 µg/mL (≈ 19.9 µM) |
| C/C=C1/[C@H](O[C@@H]2O[C@H](CO)[C@@H](O)[C@H](O)[C@H]2O)OC=C(C(=O)OC)[C@H]1CC(=O)OCCc1ccc(O)c(O)c1 [OLEUROPEIN] | 170 µg/mL (≈ 315 µM) |
| O=C(O)/C=C/c1ccc(O)cc1 [COUMARIC ACID] | 1470 µg/mL (≈ 8950 µM) |
| O=c1cc(-c2ccc(O)c(O)c2)oc2cc(O)cc(O)c12 [LUTEOLIN] | 7 µg/mL (≈ 24.5 µM) |
| C[C@@H]1O[C@@H](OC[C@H]2O[C@@H](Oc3c(-c4ccc(O)c(O)c4)oc4cc(O)cc(O)c4c3=O)[C@H](O)[C@@H](O)[C@@H]2O)[C@H](O)[C@H](O)[C@H]1O [RUTIN] | 80 µg/mL (≈ 131 µM) |
| O=c1cc(-c2ccc(O)c(O)c2)oc2cc(O[C@@H]3O[C@H](CO)[C@@H](O)[C@H](O)[C@H]3O)cc(O)c12 [GALUTEOLIN] | 260 µg/mL (≈ 580 µM) |
| Oc1cc(O)c2c(c1)OC(c1ccc(O)c(O)c1)C(O)C2 (stereo not drawn) [CATECHIN] | 2100 µg/mL (≈ 7230 µM) |
| OCCc1ccc(O)cc1 [TYROSOL] | 660 µg/mL (≈ 4780 µM) |
